Conditions: Liquid, Vibrating tube method

CCCCCCO [hexan-1-ol]
Conditions	mass density [kg/m3]
293.15 K, 100 kPa	818.6
293.15 K, 10000 kPa	824.8
293.15 K, 20000 kPa	830.9
293.15 K, 30000 kPa	836.4
293.15 K, 40000 kPa	841.6
293.15 K, 50000 kPa	846.5
293.15 K, 60000 kPa	851.1
293.15 K, 70000 kPa	855.5
293.15 K, 80000 kPa	859.8
293.15 K, 90000 kPa	863.7
293.15 K, 100000 kPa	867.9
293.15 K, 110000 kPa	871.5
293.15 K, 120000 kPa	875.2
293.15 K, 130000 kPa	878.7
293.15 K, 140000 kPa	882.2
303.15 K, 100 kPa	811.5
303.15 K, 10000 kPa	818.2
303.15 K, 20000 kPa	824.1
303.15 K, 30000 kPa	830
303.15 K, 40000 kPa	835.1
303.15 K, 50000 kPa	840.5
303.15 K, 60000 kPa	845.3
303.15 K, 70000 kPa	849.8
303.15 K, 80000 kPa	854.2
303.15 K, 90000 kPa	858.4
303.15 K, 100000 kPa	862.4
303.15 K, 110000 kPa	866.3
303.15 K, 120000 kPa	870
303.15 K, 130000 kPa	873.6
303.15 K, 140000 kPa	877.1
313.15 K, 100 kPa	804.2
313.15 K, 10000 kPa	811.1
313.15 K, 20000 kPa	817.4
313.15 K, 30000 kPa	823.5
313.15 K, 40000 kPa	829
313.15 K, 50000 kPa	834.4
313.15 K, 60000 kPa	839.4
313.15 K, 70000 kPa	844.3
313.15 K, 80000 kPa	848.7
313.15 K, 90000 kPa	853.1
313.15 K, 100000 kPa	857.1
313.15 K, 110000 kPa	861.2
313.15 K, 120000 kPa	865.1
313.15 K, 130000 kPa	868.7
313.15 K, 140000 kPa	872.5
323.15 K, 100 kPa	797.3
323.15 K, 10000 kPa	804.5
323.15 K, 20000 kPa	811.2
323.15 K, 30000 kPa	817.4
323.15 K, 40000 kPa	823.3
323.15 K, 50000 kPa	828.7
323.15 K, 60000 kPa	833.8
323.15 K, 70000 kPa	838.5
323.15 K, 80000 kPa	843.1
323.15 K, 90000 kPa	847.6
323.15 K, 100000 kPa	851.8
323.15 K, 110000 kPa	856
323.15 K, 120000 kPa	860
323.15 K, 130000 kPa	863.7
323.15 K, 140000 kPa	867.3
333.15 K, 100 kPa	789.7
333.15 K, 10000 kPa	797.2
333.15 K, 20000 kPa	804.3
333.15 K, 30000 kPa	810.8
333.15 K, 40000 kPa	817
333.15 K, 50000 kPa	822.7
333.15 K, 60000 kPa	828
333.15 K, 70000 kPa	832.8
333.15 K, 80000 kPa	837.6
333.15 K, 90000 kPa	842.5
333.15 K, 100000 kPa	846.8
333.15 K, 110000 kPa	850.8
333.15 K, 120000 kPa	854.4
333.15 K, 130000 kPa	858.5
333.15 K, 140000 kPa	862.2
343.15 K, 100 kPa	781.9
343.15 K, 10000 kPa	790.2
343.15 K, 20000 kPa	797.6
343.15 K, 30000 kPa	804.4
343.15 K, 40000 kPa	810.6
343.15 K, 50000 kPa	816.4
343.15 K, 60000 kPa	822.1
343.15 K, 70000 kPa	827.3
343.15 K, 80000 kPa	832.1
343.15 K, 90000 kPa	836.9
343.15 K, 100000 kPa	841.4
343.15 K, 110000 kPa	845.7
343.15 K, 120000 kPa	849.7
343.15 K, 130000 kPa	853.6
343.15 K, 140000 kPa	857.5
353.15 K, 100 kPa	773.8
353.15 K, 10000 kPa	782.3
353.15 K, 20000 kPa	790.1
353.15 K, 30000 kPa	797.3
353.15 K, 40000 kPa	803.8
353.15 K, 50000 kPa	810
353.15 K, 60000 kPa	815.6
353.15 K, 70000 kPa	821
353.15 K, 80000 kPa	826.2
353.15 K, 90000 kPa	831.1
353.15 K, 100000 kPa	835.6
353.15 K, 110000 kPa	840
353.15 K, 120000 kPa	844.3
353.15 K, 130000 kPa	848.4
353.15 K, 140000 kPa	852.3
363.15 K, 100 kPa	765.5
363.15 K, 10000 kPa	774.9
363.15 K, 20000 kPa	783.1
363.15 K, 30000 kPa	790.6
363.15 K, 40000 kPa	797.5
363.15 K, 50000 kPa	803.8
363.15 K, 60000 kPa	809.7
363.15 K, 70000 kPa	815.4
363.15 K, 80000 kPa	820.6
363.15 K, 90000 kPa	825.6
363.15 K, 100000 kPa	830.3
363.15 K, 110000 kPa	834.8
363.15 K, 120000 kPa	839.2
363.15 K, 130000 kPa	843.3
363.15 K, 140000 kPa	847.2
373.15 K, 100 kPa	756.9
373.15 K, 10000 kPa	766.6
373.15 K, 20000 kPa	775.4
373.15 K, 30000 kPa	783.4
373.15 K, 40000 kPa	790.4
373.15 K, 50000 kPa	796.9
373.15 K, 60000 kPa	803.1
373.15 K, 70000 kPa	808.9
373.15 K, 80000 kPa	814.2
373.15 K, 90000 kPa	819.5
373.15 K, 100000 kPa	824.4
373.15 K, 110000 kPa	829.2
373.15 K, 120000 kPa	833.3
373.15 K, 130000 kPa	837.7
373.15 K, 140000 kPa	841.7
383.15 K, 100 kPa	748.2
383.15 K, 10000 kPa	759.1
383.15 K, 20000 kPa	767.8
383.15 K, 30000 kPa	776.5
383.15 K, 40000 kPa	783.5
383.15 K, 50000 kPa	790.4
383.15 K, 60000 kPa	796.8
383.15 K, 70000 kPa	802.6
383.15 K, 80000 kPa	808.3
383.15 K, 90000 kPa	813.7
383.15 K, 100000 kPa	818.7
383.15 K, 110000 kPa	823.4
383.15 K, 120000 kPa	828
383.15 K, 130000 kPa	832.3
383.15 K, 140000 kPa	836.5
393.15 K, 100 kPa	739.4
393.15 K, 10000 kPa	750.8
393.15 K, 20000 kPa	760.5
393.15 K, 30000 kPa	768.8
393.15 K, 40000 kPa	777
393.15 K, 50000 kPa	783.7
393.15 K, 60000 kPa	790.3
393.15 K, 70000 kPa	796.5
393.15 K, 80000 kPa	802.5
393.15 K, 90000 kPa	807.8
393.15 K, 100000 kPa	813
393.15 K, 110000 kPa	818.1
393.15 K, 120000 kPa	822.6
393.15 K, 130000 kPa	827.2
393.15 K, 140000 kPa	831.5
403.15 K, 100 kPa	730.2
403.15 K, 10000 kPa	741.8
403.15 K, 20000 kPa	751.9
403.15 K, 30000 kPa	761.1
403.15 K, 40000 kPa	769.3
403.15 K, 50000 kPa	776.9
403.15 K, 60000 kPa	783.7
403.15 K, 70000 kPa	790.1
403.15 K, 80000 kPa	796.2
403.15 K, 90000 kPa	801.8
403.15 K, 100000 kPa	807.2
403.15 K, 110000 kPa	812.3
403.15 K, 120000 kPa	817.1
403.15 K, 130000 kPa	821.8
403.15 K, 140000 kPa	826.5

Reference: the NIST ThermoML archive (doi:10.1016/j.fluid.2012.02.007)
